Results reported in PMC10582335 (Frontiers in Pharmacology, 2023).
Where two headings read alike, the source gives them in different places.

Assay: Pharmacokinetics of almonertinib in rats, alone and after multiple doses of rivaroxaban or apixaban
Assay type: in vivo, Sprague-Dawley (SD) rats
Conditions: for AUC(0-inf) / AUC(0-t) / Cmax / Tmax / CL/F / MRT last / MRT inf / Vd/F / half-life: male, Sprague-Dawley, rat, plasma, po, 15 mg/kg, mean ± SD, n = 6; for CL/F: read-out: CLz/F (converted); for MRT last: read-out: MRT0-t; for MRT inf: read-out: MRT0-∞; for Vd/F: read-out: Vz/F; for half-life: read-out: t1/2z (converted)
Experimental: Chromatographic separation was performed using an XSelect HSS T3 column (2.1 mm × 100 mm, 2.5 µm, Waters, Milford, MA, United States) at 40°C by gradient elution. The mobile phase consisted of water (A) and acetonitrile (0.1% formic acid, B). […] The flow rate was 0.35 mL min^−1, and the injection volume was 6 µL. The positive ion mode with multiple reaction detection was used. […] The mass spectrometer conditions, including delustering potential (DP) and collision energy (CE) of the compounds, are shown in Table 1. […] Protein precipitation was used to process the plasma samples. 5 μL of mixed IS working solution, 50 µL of the plasma samples, and 150 µL of acetonitrile were vortex-mixed for 1.0 min. […] The supernatant was transferred to a 96-well plate for sample analysis. […] (Beijing, China). […] The study was approved and supervised by the Animal Ethics Committee of Hebei General Hospital (Shijiazhuang, China) (No. 2023024). Adaptive feeding (sufficient food and water) was performed for 1 week before the experiment. […] All rats were fasted for 12 h before starting the experiments while still given water. Sixty healthy rats were randomly divided into ten groups (n = 6). […] Blood samples were centrifuged at 3,500 g for 10 min, and then the supernatant was gathered and stored in a −80°C refrigerator. After, rat intestine, kidney and liver tissues were harvested for molecular analysis on the ninth or fifth day after treatment with the corresponding drugs for each group. The tissues were placed immediately at −80°C. DAS 2.1.1 Software (Mathematical Pharmacology Professional Committee of China, Shanghai, China) was applied to calculate pharmacokinetic parameters using non-compartmental analysis. SPSS 25.0 statistical software (SPSS Inc., Chicago, IL, United States) was applied to statistically analyze the main pharmacokinetic parameters, including AUC, Cmax, Tmax, t1/2, CLz/F, Vz/F, and MRT.

[1] = almonertinib 15 mg/kg after multiple doses of rivaroxaban (group 9) compared with group 3, rats
[2] = rats, oral almonertinib 15 mg/kg after apixaban 0.5 mg/kg for five days (group 10)
[3] = rats, oral almonertinib 15 mg/kg after rivaroxaban 2 mg/kg for five days (group 9)
[4] = rats, oral almonertinib 15 mg/kg alone (group 3, control solvent of rivaroxaban)
[5] = rats, oral almonertinib 15 mg/kg alone (group 4, control solvent of apixaban)

Compound: C=CC(=O)Nc1cc(Nc2nccc(-c3cn(C4CC4)c4ccccc34)n2)c(OC)cc1N(C)CCN(C)C [almonertinib, Almonertinib]
- all the pharmacokinetic parameters of almonertinib, comparison with almonertinib alone (almonertinib 15 mg/kg after multiple doses of apixaban 0.5 mg/kg (group 10) compared with group 4, rats): no statistically significant difference
- increase of Cmax of almonertinib (almonertinib 15 mg/kg after multiple doses of rivaroxaban (group 9) compared with almonertinib alone (group 3), rats): 1.26 fold
- decrease of CLz/F of almonertinib [1]: 81.1%
- increase of AUC0-t of almonertinib [1]: 1.17 fold
- increase of AUC0-∞ of almonertinib [1]: 1.17 fold
- AUC(0-inf) [2]: 293 ± 48.9 ng·h/mL
- AUC(0-t) [2]: 267 ± 51.9 ng·h/mL
- Cmax [2]: 42.1 ± 5.99 ng/mL
- Tmax [2]: 2.5 ± 1.18 h
- CL/F [2]: 877 mL/min/kg
- MRT last [2]: 6.49 ± 0.35 h
- MRT inf [2]: 9.31 ± 2.59 h
- Vd/F [2]: 522 ± 318 L/kg
- half-life [2]: 6.79 ± 4.15 h
- AUC(0-inf) [3]: 299 ± 150 ng·h/mL
- AUC(0-t) [3]: 299 ± 150 ng·h/mL
- Cmax [3]: 51.4 ± 24.9 ng/mL
- Tmax [3]: 3.17 ± 0.41 h
- CL/F [3]: 1040 mL/min/kg
- MRT last [3]: 5.15 ± 0.66 h
- MRT inf [3]: 5.15 ± 0.66 h
- Vd/F [3]: 244 ± 168 L/kg
- half-life [3]: 2.7 ± 0.78 h
- AUC(0-inf) [4]: 138 ± 31.3 ng·h/mL
- AUC(0-t) [4]: 138 ± 31.3 ng·h/mL
- Cmax [4]: 22.8 ± 4.76 ng/mL
- Tmax [4]: 2.17 ± 1.13 h
- CL/F [4]: 1880 mL/min/kg
- MRT last [4]: 5.03 ± 0.73 h
- MRT inf [4]: 5.03 ± 0.74 h
- Vd/F [4]: 331 ± 125 L/kg
- half-life [4]: 2.18 ± 1.05 h
- AUC(0-inf) [5]: 299 ± 46.8 ng·h/mL
- AUC(0-t) [5]: 281 ± 43.3 ng·h/mL
- Cmax [5]: 39.8 ± 8.12 ng/mL
- Tmax [5]: 1.83 ± 1.03 h
- CL/F [5]: 855 mL/min/kg
- MRT last [5]: 6.53 ± 0.97 h
- MRT inf [5]: 8.35 ± 3.38 h
- Vd/F [5]: 383 ± 316 L/kg
- half-life [5]: 5.4 ± 4.96 h
